{"source": "the supplement of paper PMC10307832", "test_in_all_cases": "relative viability (nuclei count vs DMSO), 5 days (fraction); higher = more cells survive", "key": {"[1]": {"system": "201T", "summary_of_the_method": "(§1)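 Values are medians from duplicate plates. Each reflects relative viability, defined as the nuclei count of treated wells over that of vehicle wells. Lung cancer cell lines in 1536-well plates were pin-tool dosed one day after seeding with one drug alone or with a fixed anchor-drug dose plus five library-drug doses (not always all listed) in √10 steps, then fixed, stained and imaged at 4× after 5 days.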"}, "[2]": {"system": "A-427", "summary_of_the_method": "as §1"}, "[3]": {"system": "BEN", "summary_of_the_method": "as §1"}, "[4]": {"system": "COR-L23", "summary_of_the_method": "as §1"}, "[5]": {"system": "EKVX", "summary_of_the_method": "as §1"}, "[6]": {"system": "EMC-BAC-2", "summary_of_the_method": "as §1"}, "[7]": {"system": "EPLC-272H", "summary_of_the_method": "as §1"}, "[8]": {"system": "HCC-827", "summary_of_the_method": "as §1"}, "[9]": {"system": "LCLC-103H", "summary_of_the_method": "as §1"}, "[10]": {"system": "LK-2", "summary_of_the_method": "as §1"}, "[11]": {"system": "LXF-289", "summary_of_the_method": "as §1"}, "[12]": {"system": "NCI-H1650", "summary_of_the_method": "as §1"}, "[13]": {"system": "NCI-H1651", "summary_of_the_method": "as §1"}, "[14]": {"system": "NCI-H1793", "summary_of_the_method": "as §1"}, "[15]": {"system": "NCI-H1915", "summary_of_the_method": "as §1"}, "[16]": {"system": "NCI-H2087", "summary_of_the_method": "as §1"}, "[17]": {"system": "NCI-H2126", "summary_of_the_method": "as §1"}, "[18]": {"system": "NCI-H2347", "summary_of_the_method": "as §1"}, "[19]": {"system": "NCI-H358", "summary_of_the_method": "as §1"}, "[20]": {"system": "NCI-H460", "summary_of_the_method": "as §1"}, "[21]": {"system": "NCI-H596", "summary_of_the_method": "as §1"}, "[22]": {"system": "SW 1573", "summary_of_the_method": "as §1"}}, "data": [{"smiles": "O=c1[nH]c2ccccc2n1C1CCN(CCCC(c2ccc(F)cc2)c2ccc(F)cc2)CC1", "note": "[Pimozide] + Cc1nc(Nc2ncc(C(=O)Nc3c(C)cccc3Cl)s2)cc(N2CCN(CCO)CC2)n1 [Dasatinib] (partner 0.075 µM)", "values": [{"measurement": "relative viability", "setting": "[1]; first compound 0.08 µM", "value": 0.573}, {"measurement": "relative viability", "setting": "[1]; first compound 0.253 µM", "value": 0.527}, {"measurement": "relative viability", "setting": "[1]; first compound 0.8 µM", "value": 0.564}, {"measurement": "relative viability", "setting": "[1]; first compound 2.53 µM", "value": 0.516}, {"measurement": "relative viability", "setting": "[1]; first compound 8 µM", "value": 0.52}, {"measurement": "relative viability", "setting": "[2]; first compound 0.08 µM", "value": 0.697}, {"measurement": "relative viability", "setting": "[2]; first compound 0.253 µM", "value": 0.701}, {"measurement": "relative viability", "setting": "[2]; first compound 0.8 µM", "value": 0.681}, {"measurement": "relative viability", "setting": "[2]; first compound 2.53 µM", "value": 0.654}, {"measurement": "relative viability", "setting": "[2]; first compound 8 µM", "value": 0.665}, {"measurement": "relative viability", "setting": "[3]; first compound 0.08 µM", "value": 0.279}, {"measurement": "relative viability", "setting": "[3]; first compound 0.253 µM", "value": 0.364}, {"measurement": "relative viability", "setting": "[3]; first compound 0.8 µM", "value": 0.26}, {"measurement": "relative viability", "setting": "[3]; first compound 2.53 µM", "value": 0.329}, {"measurement": "relative viability", "setting": "[3]; first compound 8 µM", "value": 0.412}, {"measurement": "relative viability", "setting": "[4]; first compound 0.08 µM", "value": 0.58}, {"measurement": "relative viability", "setting": "[4]; first compound 0.253 µM", "value": 0.468}, {"measurement": "relative viability", "setting": "[4]; first compound 0.8 µM", "value": 0.53}, {"measurement": "relative viability", "setting": "[4]; first compound 2.53 µM", "value": 0.49}, {"measurement": "relative viability", "setting": "[4]; first compound 8 µM", "value": 0.455}, {"measurement": "relative viability", "setting": "[5]; first compound 0.253 µM", "value": 0.489}, {"measurement": "relative viability", "setting": "[5]; first compound 0.8 µM", "value": 0.544}, {"measurement": "relative viability", "setting": "[5]; first compound 2.53 µM", "value": 0.536}, {"measurement": "relative viability", "setting": "[5]; first compound 8 µM", "value": 0.688}, {"measurement": "relative viability", "setting": "[6]; first compound 0.08 µM", "value": 0.351}, {"measurement": "relative viability", "setting": "[6]; first compound 0.253 µM", "value": 0.274}, {"measurement": "relative viability", "setting": "[6]; first compound 0.8 µM", "value": 0.331}, {"measurement": "relative viability", "setting": "[6]; first compound 2.53 µM", "value": 0.285}, {"measurement": "relative viability", "setting": "[6]; first compound 8 µM", "value": 0.218}, {"measurement": "relative viability", "setting": "[7]; first compound 0.08 µM", "value": 0.298}, {"measurement": "relative viability", "setting": "[7]; first compound 0.253 µM", "value": 0.322}, {"measurement": "relative viability", "setting": "[7]; first compound 0.8 µM", "value": 0.385}, {"measurement": "relative viability", "setting": "[7]; first compound 2.53 µM", "value": 0.293}, {"measurement": "relative viability", "setting": "[7]; first compound 8 µM", "value": 0.215}, {"measurement": "relative viability", "setting": "[8]; first compound 0.253 µM", "value": 0.265}, {"measurement": "relative viability", "setting": "[8]; first compound 0.8 µM", "value": 0.327}, {"measurement": "relative viability", "setting": "[8]; first compound 2.53 µM", "value": 0.32}, {"measurement": "relative viability", "setting": "[8]; first compound 8 µM", "value": 0.34}, {"measurement": "relative viability", "setting": "[9]; first compound 0.08 µM", "value": 0.531}, {"measurement": "relative viability", "setting": "[9]; first compound 0.253 µM", "value": 0.373}, {"measurement": "relative viability", "setting": "[9]; first compound 0.8 µM", "value": 0.371}, {"measurement": "relative viability", "setting": "[9]; first compound 2.53 µM", "value": 0.518}, {"measurement": "relative viability", "setting": "[9]; first compound 8 µM", "value": 0.549}, {"measurement": "relative viability", "setting": "[10]; first compound 0.08 µM", "value": 0.33}, {"measurement": "relative viability", "setting": "[10]; first compound 0.253 µM", "value": 0.273}, {"measurement": "relative viability", "setting": "[10]; first compound 2.53 µM", "value": 0.242}, {"measurement": "relative viability", "setting": "[10]; first compound 8 µM", "value": 0.24}, {"measurement": "relative viability", "setting": "[11]; first compound 0.08 µM", "value": 0.236}, {"measurement": "relative viability", "setting": "[11]; first compound 0.253 µM", "value": 0.277}, {"measurement": "relative viability", "setting": "[11]; first compound 0.8 µM", "value": 0.241}, {"measurement": "relative viability", "setting": "[11]; first compound 2.53 µM", "value": 0.205}, {"measurement": "relative viability", "setting": "[11]; first compound 8 µM", "value": 0.226}, {"measurement": "relative viability", "setting": "[12]; first compound 0.08 µM", "value": 0.274}, {"measurement": "relative viability", "setting": "[12]; first compound 0.253 µM", "value": 0.282}, {"measurement": "relative viability", "setting": "[12]; first compound 0.8 µM", "value": 0.337}, {"measurement": "relative viability", "setting": "[12]; first compound 2.53 µM", "value": 0.298}, {"measurement": "relative viability", "setting": "[12]; first compound 8 µM", "value": 0.239}, {"measurement": "relative viability", "setting": "[13]; first compound 0.08 µM", "value": 0.436}, {"measurement": "relative viability", "setting": "[13]; first compound 0.253 µM", "value": 0.455}, {"measurement": "relative viability", "setting": "[13]; first compound 0.8 µM", "value": 0.388}, {"measurement": "relative viability", "setting": "[13]; first compound 2.53 µM", "value": 0.399}, {"measurement": "relative viability", "setting": "[13]; first compound 8 µM", "value": 0.391}, {"measurement": "relative viability", "setting": "[14]; first compound 0.253 µM", "value": 0.388}, {"measurement": "relative viability", "setting": "[14]; first compound 0.8 µM", "value": 0.343}, {"measurement": "relative viability", "setting": "[14]; first compound 2.53 µM", "value": 0.391}, {"measurement": "relative viability", "setting": "[14]; first compound 8 µM", "value": 0.35}, {"measurement": "relative viability", "setting": "[15]; first compound 0.08 µM", "value": 0.328}, {"measurement": "relative viability", "setting": "[15]; first compound 0.253 µM", "value": 0.246}, {"measurement": "relative viability", "setting": "[15]; first compound 0.8 µM", "value": 0.214}, {"measurement": "relative viability", "setting": "[15]; first compound 2.53 µM", "value": 0.322}, {"measurement": "relative viability", "setting": "[15]; first compound 8 µM", "value": 0.303}, {"measurement": "relative viability", "setting": "[16]; first compound 0.08 µM", "value": 0.905}, {"measurement": "relative viability", "setting": "[16]; first compound 0.253 µM", "value": 0.724}, {"measurement": "relative viability", "setting": "[16]; first compound 2.53 µM", "value": 0.642}, {"measurement": "relative viability", "setting": "[16]; first compound 8 µM", "value": 0.672}, {"measurement": "relative viability", "setting": "[17]; first compound 0.08 µM", "value": 0.687}, {"measurement": "relative viability", "setting": "[17]; first compound 0.253 µM", "value": 0.548}, {"measurement": "relative viability", "setting": "[17]; first compound 0.8 µM", "value": 0.568}, {"measurement": "relative viability", "setting": "[17]; first compound 2.53 µM", "value": 0.607}, {"measurement": "relative viability", "setting": "[17]; first compound 8 µM", "value": 0.605}, {"measurement": "relative viability", "setting": "[18]; first compound 0.253 µM", "value": 0.34}, {"measurement": "relative viability", "setting": "[18]; first compound 0.8 µM", "value": 0.295}, {"measurement": "relative viability", "setting": "[18]; first compound 2.53 µM", "value": 0.349}, {"measurement": "relative viability", "setting": "[18]; first compound 8 µM", "value": 0.343}, {"measurement": "relative viability", "setting": "[19]; first compound 0.08 µM", "value": 0.16}, {"measurement": "relative viability", "setting": "[19]; first compound 0.253 µM", "value": 0.199}, {"measurement": "relative viability", "setting": "[19]; first compound 0.8 µM", "value": 0.157}, {"measurement": "relative viability", "setting": "[19]; first compound 2.53 µM", "value": 0.156}, {"measurement": "relative viability", "setting": "[19]; first compound 8 µM", "value": 0.172}, {"measurement": "relative viability", "setting": "[20]; first compound 0.08 µM", "value": 0.537}, {"measurement": "relative viability", "setting": "[20]; first compound 0.253 µM", "value": 0.486}, {"measurement": "relative viability", "setting": "[20]; first compound 0.8 µM", "value": 0.529}, {"measurement": "relative viability", "setting": "[20]; first compound 2.53 µM", "value": 0.483}, {"measurement": "relative viability", "setting": "[20]; first compound 8 µM", "value": 0.447}, {"measurement": "relative viability", "setting": "[21]; first compound 0.08 µM", "value": 0.565}, {"measurement": "relative viability", "setting": "[21]; first compound 0.253 µM", "value": 0.572}, {"measurement": "relative viability", "setting": "[21]; first compound 0.8 µM", "value": 0.624}, {"measurement": "relative viability", "setting": "[21]; first compound 2.53 µM", "value": 0.553}, {"measurement": "relative viability", "setting": "[21]; first compound 8 µM", "value": 0.662}, {"measurement": "relative viability", "setting": "[22]; first compound 0.08 µM", "value": 0.522}, {"measurement": "relative viability", "setting": "[22]; first compound 0.253 µM", "value": 0.447}, {"measurement": "relative viability", "setting": "[22]; first compound 0.8 µM", "value": 0.5}, {"measurement": "relative viability", "setting": "[22]; first compound 2.53 µM", "value": 0.437}, {"measurement": "relative viability", "setting": "[22]; first compound 8 µM", "value": 0.692}]}]}
